Here are results for seven molecules from patent publication US12391679B2, “Benzamide-substituted bicyclic imidazo- and pyrazolo-fused -pyridine, -pyrimide, and -pyridazine compounds for treatment of inflammatory diseases” (ONCO3R Therapeutics BV, priority 2019, dated 2025).

SMILES strings stand for the structures.

In assay [1] the target is T1, SIK1 (Homo sapiens, UniProt P57059).
T1 construct: purchased Carna Biosciences 02-131
The experiment in a line: ADP-Glo kinase assay, SIK1. The class given is biochemical. The procedure, abridged:
(§1)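 Kinase reactions ran 120 min at room temperature after ATP addition to enzyme-substrate mix. Remaining ATP was depleted (40 min) and ADP converted to ATP for luciferase detection (30 min), signal rising with activity. Final 1% DMSO and 10 μM staurosporine served as negative and positive controls.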
In general terms: ADP-Glo turns the ADP formed in a reaction into a luminescent signal.

The target in assay [2] is T2, SIK2 (Homo sapiens, UniProt Q9H0K1).
T2 construct: purchased ThermoFisher Scientific PV4792
The experiment in a line: 33P radioactive kinase assay, SIK2. Also: AMARA 5 µM, 10 µM ATP. The class given is biochemical. The procedure:
(§2) The principle of the ^33P radioactive kinase assay consists in measuring the incorporated ^33P into the substrate AMARA peptide when phosphorylated by SIK1, SIK2 or SIK3 using [^33P]-g-ATP, which correlates with kinase activity.
(§3) The test compounds are prepared as a serial dilution of 10 point dose responses with 1/5 dilution steps in 100% DMSO starting from 2 mM highest concentration, diluted 1/20 in water and 5 μL is transferred to the assay plates (Greiner, Cat #651201).
(§4) 1% DMSO and 10 μM staurosporine final concentrations are used as negative and positive controls.
(§5) 11 μL of enzyme-substrate mixture is added on the assay plates. The reactions are started by adding 9 μL ATP mixture, consisting of non-labeled and ^33P-labeled ATP, on the assay plates.
(§6) The reactions are stopped by adding 25 μL phosphoric acid (150 mM) to the reactions.
(§7) The completely terminated kinase reactions are transferred using a harvester on pre-wetted UniFilter-96 plates (UniFilter-96 GF/B, PerkinElmer Inc., Cat #6005177).
(§8) After harvesting the kinase reactions, the filter plates are washed 6 times with phosphoric acid (75 mM). The back of the UniFilter-96 plates are sealed and 40 μL MicroScint-20 (PerkinElmer Inc., Cat #6013621) is added to each well. The top of the plates are sealed with TopSeal-A. Read-out is performed with a TopCount instrument (PerkinElmer Inc.).
(§9) Raw data are generated following the read-out performed on the TopCount, plotted to generate dose response curves to calculate percentage inhibition (PIN) and average IC50 for each SIK homologue which are reported in the table below.

The target of assay [3] is T3, SIK3 (Homo sapiens, UniProt Q9Y2K2).
T3 construct: purchased SignalChem S12-11G-100
Nature of the assay: ADP-Glo kinase assay, SIK3. The class given is biochemical. An outline of the steps:
as §1

The target in assay [4] is T3, SIK3. The experiment in a line: 33P radioactive kinase assay, SIK3. The class given is biochemical. Particulars: 33P radioactive assay; AMARA 7 μM; 15 μM ATP; 80 min; average IC50. The method, then:
as §2, §3, §4, §5, §6, §7, §8, §9

Assay [5] deals with T2, SIK2. Nature of the assay: ADP-Glo kinase assay, SIK2. It is filed as biochemical. The procedure, abridged:
as §1

Assay [6] has as its system LPS-induced TNFα in monocyte-derived macrophages. Nature of the assay: MdM assay: LPS-triggered TNFα (ELISA). It is filed as cell-based, human. Particulars: Macrophage; human MdM; LPS 200 ng/mL; supernatant after 20 h; inhibition of TNFα; read-out: TNFα EC50. The procedure:
This assay evaluates illustrative compounds of the invention for their inhibition of LPS-induced TNFα and LPS triggered IL-10 secretion in monocyte-derived macrophages. PBMCs are isolated from human blood samples (buffycoats). The buffy coat is aseptically transferred into a 50 mL Falcon tube, and diluted 1/2 in PBS. Falcon tubes are filled with 20 mL LymphoprepTM, on top of which 25 mL of the buffy coat is carefully added, tubes are centrifuged for 35 min at 400 g in temperature controlled centrifuge, without brake, at 25° C. PBMCs are aspirated from the white interface layer between sample and LymphoprepTM. PBMCs are washed five times in PBS. […] PBMCs are centrifuged at 300×g for 10 min and resuspended at a density of 1.0*10^7 cells/80 μL Miltenyi buffer (PBS, pH 7.4, 1% FBS, 2 mM EDTA). Starting from this point of the protocol all steps are performed on ice. 20 μL of CD14+ micro-beads are added per 1.0*10^7 cells, the tube is mixed and incubated for 15 min in the fridge at 4° C. Cell suspension volume is adjusted to total volume of 100 mL using Miltenyi buffer, mixed gently and subsequently centrifuged for 10 min at 300×g. Supernatant is discarded and cell pellet is resuspended in 12 mL of Miltenyi buffer. Four LS columns are placed in the MACS Separator (magnet) from Miltenyi Biotec, and are prewet by rinsing with 3 mL of MACS buffer per column. Three mL of cell suspension is added onto the column (max 1*10^8 of labelled cells/column), and columns are subsequently washed 3 times with 3 mL of Miltenyi buffer. The columns are removed from the magnets, and 5 mL of Miltenyi buffer are added to the column to flush out the CD14+ fraction by pushing the plunger into the column. The flushed fractions are collected in a fresh 50 mL Falcon and volume is adjusted to 30 mL using Miltenyi buffer, cells are centrifuged for 10 min at 300×g. The obtained cell pellet is resuspended in 10 mL RPMI w/o FBS, and cell density is determined using a hematologic analyser (Sysmex XS-500i). […] On day 10, MdMs are triggered and compound is added. A compound dilution plate is made in 100% DMSO by 3-fold dilution of 10 mM stock solution. An intermediate dilution plate (10× final concentration) is made by diluting the compound dilution plate […] in RPMI medium. Medium is carefully removed from cell plates using multichannel pipette, and replaced by 80 μL fresh medium. 10 μL of the 10× final concentration compound is added to the cells and incubated for 1 hour at 37° C. before addition of trigger. No trigger conditions/trigger conditions are spiked with equal final DMSO concentrations of 0.2% DMSO. 10 μL of 10×LPS (final conc. 200 ng/mL) solution are added to all wells except for the 'no trigger wells' where 10 μL medium is added. Supernatant is collected after 2 h (IL-10 determination) and after 20 h (TNFα determination) of LPS triggering. […] The plate is then washed once with PBST (PBS+0.05% Tween20) and once with PBS followed by the addition of 100 μL of blocking buffer (1% Bovine Serum Albumin (BSA) -5% Sucrose) and plates are sealed and incubated for at least 4 h at RT. After washing the plate once with PBST and once with PBS, 40 μL of standard or sample are added (TNFα standard curve is prepared using a 1/2 serial dilution starting from 16000 pg/mL; dilutions are made in dilution buffer (PBS+1% BSA)). Plates are washed twice with PBST, and once with PBS, after which 35 μL of the detection antibody is added (final concentration 0.25 μg/mL diluted in dilution buffer) and plates are incubated for at least 2 h at RT. Plates are washed twice with PBST, and once with PBS, where after 35 μL of Strep-HRP conjugate (0.5 μg/mL final concentration diluted in dilution buffer) is added. […] Plates are washed twice with PBST, and once with PBS. Thereafter, 50 μL of luminol substrate is added to each well (prepared according to manufacturer's instructions), and incubated for 5 min at RT protected from light.
A general note: In an ELISA, binding on a coated surface is turned into a signal by an enzyme label.

Assay [7] deals with T1, SIK1. Nature of the assay: 33P radioactive kinase assay, SIK1. It is filed as biochemical. The procedure:
as §2, §3, §4, §5, §6, §7, §8, §9

T2 sequence (Q9H0K1 whole entry): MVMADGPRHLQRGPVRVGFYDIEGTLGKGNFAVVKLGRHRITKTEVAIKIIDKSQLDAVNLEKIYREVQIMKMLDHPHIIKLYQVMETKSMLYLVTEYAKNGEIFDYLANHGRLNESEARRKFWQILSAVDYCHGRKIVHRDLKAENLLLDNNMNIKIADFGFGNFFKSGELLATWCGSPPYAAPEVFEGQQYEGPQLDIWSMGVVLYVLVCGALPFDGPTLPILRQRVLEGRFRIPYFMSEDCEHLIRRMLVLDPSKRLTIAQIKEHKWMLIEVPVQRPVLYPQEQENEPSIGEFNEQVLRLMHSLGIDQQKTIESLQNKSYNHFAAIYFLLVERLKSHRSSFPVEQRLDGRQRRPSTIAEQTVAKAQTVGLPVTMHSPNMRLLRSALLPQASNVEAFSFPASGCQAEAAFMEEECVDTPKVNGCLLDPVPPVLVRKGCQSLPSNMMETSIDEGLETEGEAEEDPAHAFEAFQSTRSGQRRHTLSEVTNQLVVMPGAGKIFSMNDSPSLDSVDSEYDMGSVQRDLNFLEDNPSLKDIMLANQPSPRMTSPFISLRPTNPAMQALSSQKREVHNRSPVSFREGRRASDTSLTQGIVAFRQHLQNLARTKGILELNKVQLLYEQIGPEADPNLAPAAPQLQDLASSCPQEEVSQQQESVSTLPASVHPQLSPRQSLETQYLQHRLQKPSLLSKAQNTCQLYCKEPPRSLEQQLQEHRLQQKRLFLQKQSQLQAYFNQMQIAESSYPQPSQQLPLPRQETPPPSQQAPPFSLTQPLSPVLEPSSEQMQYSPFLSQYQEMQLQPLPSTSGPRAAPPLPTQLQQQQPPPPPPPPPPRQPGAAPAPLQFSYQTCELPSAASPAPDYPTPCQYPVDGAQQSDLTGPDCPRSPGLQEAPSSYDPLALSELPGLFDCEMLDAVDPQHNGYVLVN
T3 sequence (Q9Y2K2 59-365 limits assumed): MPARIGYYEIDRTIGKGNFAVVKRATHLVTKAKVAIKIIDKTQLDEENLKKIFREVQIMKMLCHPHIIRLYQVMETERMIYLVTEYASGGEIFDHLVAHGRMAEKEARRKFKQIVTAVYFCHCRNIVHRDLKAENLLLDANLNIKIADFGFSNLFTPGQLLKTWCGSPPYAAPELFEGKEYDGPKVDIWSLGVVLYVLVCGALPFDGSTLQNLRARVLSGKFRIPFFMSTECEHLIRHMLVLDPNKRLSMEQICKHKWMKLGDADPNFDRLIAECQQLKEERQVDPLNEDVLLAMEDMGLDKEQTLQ
T1 sequence (P57059 whole entry): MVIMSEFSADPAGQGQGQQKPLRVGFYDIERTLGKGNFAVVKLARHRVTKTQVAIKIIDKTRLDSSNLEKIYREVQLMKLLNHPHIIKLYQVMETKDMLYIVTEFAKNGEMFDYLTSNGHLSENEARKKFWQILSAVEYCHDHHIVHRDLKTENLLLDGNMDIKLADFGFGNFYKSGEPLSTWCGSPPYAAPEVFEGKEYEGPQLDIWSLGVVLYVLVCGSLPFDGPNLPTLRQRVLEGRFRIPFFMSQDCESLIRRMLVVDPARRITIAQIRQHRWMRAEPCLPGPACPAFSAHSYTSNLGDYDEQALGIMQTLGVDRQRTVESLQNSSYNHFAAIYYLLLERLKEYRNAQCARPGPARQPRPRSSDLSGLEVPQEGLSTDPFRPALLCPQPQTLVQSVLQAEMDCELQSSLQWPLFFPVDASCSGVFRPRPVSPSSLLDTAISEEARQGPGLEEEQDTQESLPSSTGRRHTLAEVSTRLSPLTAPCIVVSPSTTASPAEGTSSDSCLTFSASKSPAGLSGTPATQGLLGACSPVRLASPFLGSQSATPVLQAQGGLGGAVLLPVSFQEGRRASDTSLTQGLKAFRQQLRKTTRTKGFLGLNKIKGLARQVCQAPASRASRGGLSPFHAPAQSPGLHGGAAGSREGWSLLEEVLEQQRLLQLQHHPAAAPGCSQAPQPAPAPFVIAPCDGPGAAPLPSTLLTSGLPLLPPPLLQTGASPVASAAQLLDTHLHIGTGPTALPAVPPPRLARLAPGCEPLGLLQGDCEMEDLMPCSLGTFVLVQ

`COc1cc(-c2cnc3cc(C(C)(C)C#N)ccn23)cc2c1C(=O)NCC2` [Cpd 20, 2-[3-(8-methoxy-1-oxo-3,4-dihydro-2H-isoquinolin-6-yl)imidazo[1,2-a]pyridin-7-yl]-2-methyl-propanenitrile]: the 50% inhibitory concentration (IC50) (commonly the midpoint of a concentration-inhibition curve) is greater than 500 nM at SIK1 [1]; greater than 500 nM on SIK2 [2]; 10 to 100 nM against SIK3 [3]; 10 to 100 nM on SIK3 [4]; greater than 500 nM against SIK2 [5]; greater than 500 nM on SIK1 [7]. Further, the EC50 (commonly the concentration at which the effect is half-maximal) in assay [6] was in the range of 1000 to 5000 nM.

Turning to `COc1cc(-c2cnc3cc(C4CCCN(C)C4)ccn23)cc(OC)c1C(=O)NCC(F)(F)F` (stereo not shown) [Cpd 24, 2,6-dimethoxy-4-[7-(1-methyl-3-piperidyl)imidazo[1,2-a]pyridin-3-yl]-N-(2,2,2-trifluoroethyl)benzamide], the IC50 against SIK1 [1] was greater than 500 nM; at SIK2 [2], 100 to 500 nM; against SIK3 [3] it was 10 to 100 nM; on SIK3 [4], 10 to 100 nM; at SIK2 [5], 100 to 500 nM; at SIK1 [7], greater than 500 nM. Moreover, the EC50 in assay [6] was in the range of 1000 to 5000 nM.

As for `COc1cc(-c2cnc3cc(C(C)(C)C#N)ccn23)cc(OC)c1C(=O)NCC(F)(F)F` [Cpd 17, 4-[7-(1-cyano-1-methyl-ethyl)imidazo[1,2-a]pyridin-3-yl]-2,6-dimethoxy-N-(2,2,2-trifluoroethyl)benzamide], the IC50 against SIK1 [1] is greater than 500 nM; at SIK2 [2] it was greater than 500 nM; against SIK3 [3], 10 to 100 nM; at SIK3 [4] it was 10 to 100 nM; on SIK2 [5], greater than 500 nM; on SIK1 [7], greater than 500 nM. For the same molecule, the EC50 in assay [6] was in the range of 100 to 1000 nM.

As to `COc1cc(-c2cnc3cc(C(C)C#N)ccn23)cc(OC(F)F)c1C(=O)NC1CC1` (stereo not shown) [Cpd 26, 4-[7-(1-cyanoethyl)imidazo[1,2-a]pyridin-3-yl]-N-cyclopropyl-2-(difluoromethoxy)-6-methoxy-benzamide], the IC50 against SIK1 [1] was greater than 500 nM; on SIK2 [2], 100 to 500 nM; at SIK3 [3], 0.01 to 10 nM; on SIK3 [4], 10 to 100 nM; at SIK2 [5], 100 to 500 nM; on SIK1 [7], greater than 500 nM. The EC50 in assay [6] was 100 to 1000 nM.

With `COc1cc(-c2cnc3cc(C4CCN(C(=O)OC(C)(C)C)CC4)ccn23)cc(OC)c1C(=O)NCC(F)(F)F` [Cpd 16, tert-butyl 4-[3-[3,5-dimethoxy-4-(2,2,2-trifluoroethylcarbamoyl)phenyl]imidazo[1,2-a]pyridin-7-yl]piperidine-1-carboxylate], the IC50 is 100 to 500 nM on SIK2 [2], 10 to 100 nM on SIK3 [4] and greater than 500 nM at SIK1 [7]. Further, the EC50 in assay [6] is greater than 5000 nM.

`COc1cc(-c2cnc3cc(C4(C#N)CCC4)ccn23)cc(OC(F)F)c1C(=O)NC1CC1` [Cpd 34, 4-[7-(1-cyanocyclobutyl)imidazo[1,2-a]pyridin-3-yl]-N-cyclopropyl-2-(difluoromethoxy)-6-methoxy-benzamide]: the IC50 against SIK1 [1] was greater than 500 nM; on SIK2 [2] it was greater than 500 nM; against SIK3 [3], 0.01 to 10 nM; at SIK3 [4], 10 to 100 nM; at SIK2 [5] it was 100 to 500 nM; on SIK1 [7], greater than 500 nM. Moreover, the EC50 in assay [6] was 100 to 1000 nM.

Turning to `COc1cc(-c2cnc3cc(C(C)(C)C#N)ccn23)cc2c1C(=O)N(CC(F)(F)F)CC2` [Cpd 25, 2-[3-[8-methoxy-1-oxo-2-(2,2,2-trifluoroethyl)-3,4-dihydroisoquinolin-6-yl]imidazo[1,2-a]pyridin-7-yl]-2-methyl-propanenitrile], the IC50 against SIK1 [1] was greater than 500 nM; on SIK2 [2] it was greater than 500 nM; against SIK3 [3], 10 to 100 nM; on SIK3 [4], 10 to 100 nM; against SIK2 [5], greater than 500 nM; on SIK1 [7], greater than 500 nM. The EC50 in assay [6] lay within 1000 to 5000 nM.
